Experimental findings from US8536168B2 (Novartis AG, priority 2007, dated 2013) are described below.

Like-named read-outs stand apart in the source and are kept apart here.

One assay has as its system Gli-luciferase activity. As to the kind of experiment: Reporter gene assay (RGA) in TMHh12 cells, antagonism of Gli-luciferase activity in the presence of a Smo agonist. Format: cell-based. The method, then: Activity of the compounds was evaluated using a reporter gene assay (RGA) in TMHh12 cells.
On the technique in general: In a reporter assay the amount or activity of a reporter protein is the signal.

Assay [1] deals with human Smoothened receptor (Homo sapiens, UniProt Q99835). Put plainly: Smo binding assay, displacement of radio-labeled smoothened agonist, filter binding format (human). The settings on record: displacement of small molecule agonist of Smoothened, read-out: Human Smo bdg., IC50. From the text: A Smo binding assay was developed using radio-labeled smoothened agonist for compound competition. Table 9 lists the IC50 for displacement of a small molecule agonist of Smoothened determined in a filter binding format for the mouse and human Smoothened receptor.

The target of assay [2] is mouse Smoothened receptor (Mus musculus, UniProt P56726). Put plainly: Smo binding assay, displacement of radio-labeled smoothened agonist, filter binding format (mouse). The settings on record: displacement of small molecule agonist of Smoothened, read-out: Mouse Smo bdg., IC50. The text has this:
A Smo binding assay was developed using radio-labeled smoothened agonist for compound competition.

Where [3] appears, read: 25 nM small molecule Smo agonist, read-out: RGA (25 nM Smo agonist) IC50.
Where [4] appears, read: read-out: RGA (1 nM Smo agonist) IC50, 1 nM small molecule Smo agonist.

Sequence of mouse Smoothened receptor (P56726 33-793): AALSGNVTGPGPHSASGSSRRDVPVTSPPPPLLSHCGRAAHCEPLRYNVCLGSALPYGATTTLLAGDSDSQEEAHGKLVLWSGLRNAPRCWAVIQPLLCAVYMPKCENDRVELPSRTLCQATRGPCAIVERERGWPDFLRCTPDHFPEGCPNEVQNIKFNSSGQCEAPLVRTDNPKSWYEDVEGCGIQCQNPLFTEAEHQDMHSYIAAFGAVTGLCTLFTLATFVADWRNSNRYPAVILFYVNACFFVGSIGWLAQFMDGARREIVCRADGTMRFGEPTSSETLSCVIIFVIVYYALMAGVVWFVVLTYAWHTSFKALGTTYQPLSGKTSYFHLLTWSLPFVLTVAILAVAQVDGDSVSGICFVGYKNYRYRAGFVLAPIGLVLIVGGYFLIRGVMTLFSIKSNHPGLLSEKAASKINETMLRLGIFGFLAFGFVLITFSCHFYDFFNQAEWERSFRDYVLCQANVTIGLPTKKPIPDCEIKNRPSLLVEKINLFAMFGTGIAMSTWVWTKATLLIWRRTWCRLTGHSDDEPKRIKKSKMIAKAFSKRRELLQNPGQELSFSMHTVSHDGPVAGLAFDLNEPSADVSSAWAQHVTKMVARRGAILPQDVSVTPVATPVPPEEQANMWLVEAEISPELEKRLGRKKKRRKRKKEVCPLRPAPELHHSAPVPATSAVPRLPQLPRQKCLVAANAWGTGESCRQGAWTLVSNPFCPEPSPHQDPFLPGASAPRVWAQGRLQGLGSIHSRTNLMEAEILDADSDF
Sequence of human Smoothened receptor (Q99835 28-787): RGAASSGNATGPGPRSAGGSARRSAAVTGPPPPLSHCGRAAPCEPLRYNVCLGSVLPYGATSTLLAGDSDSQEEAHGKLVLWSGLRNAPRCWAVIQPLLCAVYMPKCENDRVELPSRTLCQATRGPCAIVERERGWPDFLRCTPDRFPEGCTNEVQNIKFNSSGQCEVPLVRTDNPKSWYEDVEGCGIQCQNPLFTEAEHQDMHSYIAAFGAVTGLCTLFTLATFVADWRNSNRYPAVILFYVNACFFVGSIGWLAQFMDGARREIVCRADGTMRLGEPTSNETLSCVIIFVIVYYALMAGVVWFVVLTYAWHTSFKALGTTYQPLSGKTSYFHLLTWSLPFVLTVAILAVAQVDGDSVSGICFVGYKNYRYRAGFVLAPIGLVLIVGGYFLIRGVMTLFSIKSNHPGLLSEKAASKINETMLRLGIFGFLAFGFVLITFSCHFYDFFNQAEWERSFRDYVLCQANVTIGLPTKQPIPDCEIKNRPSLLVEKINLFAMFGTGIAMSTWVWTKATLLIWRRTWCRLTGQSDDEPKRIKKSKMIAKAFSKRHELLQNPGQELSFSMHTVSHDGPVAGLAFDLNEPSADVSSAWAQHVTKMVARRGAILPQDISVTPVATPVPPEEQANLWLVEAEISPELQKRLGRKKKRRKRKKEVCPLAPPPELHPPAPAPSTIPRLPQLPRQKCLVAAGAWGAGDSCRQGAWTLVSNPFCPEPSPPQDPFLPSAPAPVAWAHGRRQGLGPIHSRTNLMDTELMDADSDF

Usually IC50 stands for the midpoint of a concentration-inhibition curve. Regarding `N#Cc1ccc(N2CCN(c3nnc(Cc4ccccc4)c4ccccc34)CC2)nc1` [Example 1, 6-[4-(4-Benzyl-phthalazin-1-yl)-piperazin-1-yl]-nicotinonitrile], the IC50 in the assay with Gli-luciferase activity (setting [3]) was 1000 to 10000 nM; in the assay on Gli-luciferase activity (setting [4]) it was under 100 nM; in assay [1], 100 to 1000 nM; in assay [2] it was under 100 nM.

`FC(F)(F)c1ccc(N2CCN(c3nnc(Cc4ccccc4)c4ccccc34)CC2)nc1` [Example 2]: the IC50 is 100 to 1000 nM in the assay with Gli-luciferase activity (setting [3]), under 100 nM with Gli-luciferase activity (setting [4]), under 100 nM in assay [1] and under 100 nM in assay [2].

For the molecule `CCOC(=O)c1ccc(N2CCN(c3nnc(Cc4ccccc4)c4ccccc34)CC2)cc1` [Example 5], the half-inhibitory concentration (IC50) is 100 to 1000 nM in the assay with Gli-luciferase activity (setting [3]), under 100 nM with Gli-luciferase activity (setting [4]), under 100 nM in assay [1] and under 100 nM in assay [2].

Regarding `O=C(O)c1ccc(N2CCN(c3nnc(Cc4ccccc4)c4ccccc34)CC2)cc1` [Example 16], the 50% inhibitory concentration (IC50) (in the assay on Gli-luciferase activity (setting [3]); in the assay with Gli-luciferase activity (setting [4]); in assay [1]; in assay [2]) was 1000 to 10000 nM in each case.

For `N#Cc1cnc(N2CCN(c3nnc(Cc4ccccc4)c4ccccc34)CC2)nc1` [Example 39, 2-[4-(4-Benzyl-phthalazin-1-yl)-piperazin-1-yl]-pyrimidine-5-carbonitrile], the concentration for half-maximal inhibition (IC50) in the assay with Gli-luciferase activity (setting [3]) was 100 to 1000 nM; in the assay with Gli-luciferase activity (setting [4]), under 100 nM; in assay [1] it was 100 to 1000 nM; in assay [2], 100 to 1000 nM.

For `COc1cc(=O)[nH]c(N2CCN(c3nnc(Cc4ccccc4)c4ccccc34)CC2)n1` [Example 46], the IC50 in the assay on Gli-luciferase activity (setting [3]) lay in the range of 10000 to 40000 nM; in the assay on Gli-luciferase activity (setting [4]), 1000 to 10000 nM; in assay [1], 100 to 1000 nM; in assay [2], 100 to 1000 nM.

As for `Cc1cc(C)nc(N2CCN(c3nnc(Cc4ccccc4)c4ccccc34)CC2)n1` [Example 48], the IC50 is 1000 to 10000 nM in the assay with Gli-luciferase activity (setting [3]), under 100 nM in the assay on Gli-luciferase activity (setting [4]), 100 to 1000 nM in assay [1] and under 100 nM in assay [2].

As to `Fc1cc(Cl)cnc1N1CCN(c2nnc(Cc3ccccc3)c3ccccc23)CC1` [Example 49], the IC50 with Gli-luciferase activity (setting [3]) is 100 to 1000 nM; in the assay on Gli-luciferase activity (setting [4]), under 100 nM; in assay [1], 100 to 1000 nM; in assay [2] it was 100 to 1000 nM.

Turning to `FC(F)(F)c1ccnc(N2CCN(c3nnc(Cc4ccccc4)c4ccccc34)CC2)n1` [Example 50], the IC50 is 100 to 1000 nM in the assay on Gli-luciferase activity (setting [3]), under 100 nM in the assay with Gli-luciferase activity (setting [4]), 100 to 1000 nM in assay [1] and 100 to 1000 nM in assay [2].

On to `Fc1cnc(F)c(N2CCN(c3nnc(Cc4ccccc4)c4ccccc34)CC2)c1` [Example 51], for which the half-inhibitory concentration (IC50) was in the range of 1000 to 10000 nM in the assay with Gli-luciferase activity (setting [3]), 100 to 1000 nM in the assay on Gli-luciferase activity (setting [4]), 1000 to 10000 nM in assay [1] and 1000 to 10000 nM in assay [2].

As for `Fc1cnc(N2CCN(c3nnc(Cc4ccccc4)c4ccccc34)CC2)c(F)c1` [Example 52], the IC50 with Gli-luciferase activity (setting [3]) was in the range of 1000 to 10000 nM; in the assay with Gli-luciferase activity (setting [4]), 100 to 1000 nM; in assay [1] it was 100 to 1000 nM; in assay [2], 100 to 1000 nM.

Take `CCCNC(=O)c1ccc(N2CCN(c3nnc(Cc4ccccc4)c4ccccc34)CC2)nc1` [Example 54n]: the IC50 in the assay with Gli-luciferase activity (setting [3]) is 100 to 1000 nM; with Gli-luciferase activity (setting [4]) it was under 100 nM; in assay [2], under 100 nM.

For the molecule `O=C(c1ccc(N2CCN(c3nnc(Cc4ccccc4)c4ccccc34)CC2)nc1)N1CCC(O)C1` (stereo not shown) [Example 54o], the IC50 was 100 to 1000 nM in the assay on Gli-luciferase activity (setting [3]), under 100 nM in the assay with Gli-luciferase activity (setting [4]) and 100 to 1000 nM in assay [2].

For the molecule `O=C(c1ccc(N2CCN(c3nnc(Cc4ccccc4)c4ccccc34)CC2)nc1)N1CCSC1` [Example 54p], the IC50 was 100 to 1000 nM with Gli-luciferase activity (setting [3]), under 100 nM in the assay on Gli-luciferase activity (setting [4]) and under 100 nM in assay [2].

For `NCc1ccc(N2CCN(c3nnc(Cc4ccccc4)c4ccccc34)CC2)cc1` [Example 73], the IC50 in the assay on Gli-luciferase activity (setting [3]) is 1000 to 10000 nM; in the assay on Gli-luciferase activity (setting [4]), 100 to 1000 nM; in assay [2], 100 to 1000 nM.

On to `CC(=O)NCc1ccc(N2CCN(c3nnc(Cc4ccccc4)c4ccccc34)CC2)cc1` [Example 75], for which the half-inhibitory concentration (IC50) in the assay with Gli-luciferase activity (setting [3]) is 1000 to 10000 nM; in the assay on Gli-luciferase activity (setting [4]), 100 to 1000 nM; in assay [2] it was 100 to 1000 nM.

Consider `CC(=O)NCc1ccc(N2CCN(c3nnc(Cc4ccncc4)c4ccccc34)CC2)cc1` [Example 76], for which the half-inhibitory concentration (IC50) with Gli-luciferase activity (setting [3]) is 10000 to 40000 nM; in the assay with Gli-luciferase activity (setting [4]) it was 1000 to 10000 nM; in assay [2] it was 10000 to 40000 nM.

With `O=C(NCc1ccc(N2CCN(c3nnc(Cc4ccccc4)c4ccccc34)CC2)cc1)OCc1ccccc1` [Example 77], the results for the concentration for half-maximal inhibition (IC50) (in the assay on Gli-luciferase activity (setting [3]); in the assay on Gli-luciferase activity (setting [4]); in assay [2]) were 1000 to 10000 nM, 100 to 1000 nM and 100 to 1000 nM, respectively.

For `O=C(NCc1ccc(N2CCN(c3nnc(Cc4ccncc4)c4ccccc34)CC2)cc1)OCc1ccccc1` [Example 78], the IC50 in the assay on Gli-luciferase activity (setting [3]) lay in the range of 10000 to 40000 nM; in the assay with Gli-luciferase activity (setting [4]) it was 1000 to 10000 nM; in assay [2], 1000 to 10000 nM.

Take `Cc1cc(N2CCN(c3ccc(C#N)cn3)CC2)nnc1Cc1ccc(Cl)cc1` [Example 93]: the half-inhibitory concentration (IC50) with Gli-luciferase activity (setting [4]) was 100 to 1000 nM; in assay [2], under 100 nM.

As for `Cc1c(Cc2ccc(F)cc2)nnc(N2CCN(c3ccc(C#N)cn3)CC2)c1C` [Example 93a], the half-inhibitory concentration (IC50) in the assay with Gli-luciferase activity (setting [3]) was 100 to 1000 nM; with Gli-luciferase activity (setting [4]), 100 to 1000 nM; in assay [2] it was under 100 nM.

Consider `COC(=O)c1cnc(N2CCN(c3nnc(Cc4ccccc4)c4ccccc34)CC2)nc1` [Example 140], for which the figures for the IC50 (in the assay with Gli-luciferase activity (setting [3]); in the assay on Gli-luciferase activity (setting [4]); in assay [2]) were 1000 to 10000 nM, 1000 to 10000 nM and 100 to 1000 nM, respectively.

As to `COC(=O)c1cnc(N2CCN(c3nnc(Cc4ccccc4)c4ccccc34)C[C@H]2C)cn1` [Example 145, (R)-4-(4-Benzyl-phthalazin-1-yl)-2-methyl-3,4,5,6-tetrahydro-2H-[1,2′]bipyrazinyl-5′-carboxylic acid methyl ester], the half-inhibitory concentration (IC50) is 100 to 1000 nM with Gli-luciferase activity (setting [3]), under 100 nM in the assay with Gli-luciferase activity (setting [4]) and under 100 nM in assay [1].

With `CC(=O)c1cnc(N2CCN(c3nnc(Cc4ccccc4)c4ccccc34)CC2)cn1` [Example 153], the half-maximal inhibitory concentration (IC50) in the assay with Gli-luciferase activity (setting [3]) was 100 to 1000 nM; with Gli-luciferase activity (setting [4]) it was under 100 nM; in assay [2] it was under 100 nM.

In the case of `OCc1ccc(N2CCN(c3nnc(Cc4ccccc4)c4ccccc34)CC2)nc1` [Example 158], the IC50 in the assay on Gli-luciferase activity (setting [3]) lay in the range of 1000 to 10000 nM; in the assay with Gli-luciferase activity (setting [4]), 100 to 1000 nM; in assay [2] it was 100 to 1000 nM.

`CN(C)C(=O)c1ccc(N2CCN(c3nnc(Cc4ccc(F)cc4F)c4ccccc34)CC2)nc1` [Example 202]: the figures for the IC50 (with Gli-luciferase activity (setting [3]); in the assay with Gli-luciferase activity (setting [4]); in assay [2]) were 100 to 1000 nM, under 100 nM and under 100 nM, respectively.

Turning to `CS(=O)(=O)NCc1ccc(N2CCN(c3nnc(Cc4ccccc4)c4ccccc34)CC2)nc1` [Example 205], the concentration for half-maximal inhibition (IC50) in the assay on Gli-luciferase activity (setting [3]) is 100 to 1000 nM; in the assay with Gli-luciferase activity (setting [4]), 100 to 1000 nM; in assay [2], under 100 nM.

Turning to `CNC(=O)NCc1ccc(N2CCN(c3nnc(Cc4ccccc4)c4ccccc34)CC2)nc1` [Example 206], the IC50 with Gli-luciferase activity (setting [3]) is 100 to 1000 nM; in the assay on Gli-luciferase activity (setting [4]) it was under 100 nM; in assay [2] it was 100 to 1000 nM.

In the case of `CC(=O)Nc1ccc(N2CCN(c3nnc(Cc4ccccc4)c4ccccc34)CC2)nc1` [Example 236], the IC50 (in the assay with Gli-luciferase activity (setting [3]); with Gli-luciferase activity (setting [4]); in assay [2]) was 100 to 1000 nM throughout.

In the case of `CC(=O)Nc1cnc(N2CCN(c3nnc(Cc4ccccc4)c4ccccc34)CC2)nc1` [Example 237, N-{2-[4-(4-Benzyl-phthalazin-1-yl)-piperazin-1-yl]-pyrimidin-5-yl}-acetamide], the IC50 (in the assay on Gli-luciferase activity (setting [3]); in the assay on Gli-luciferase activity (setting [4]); in assay [2]) was 100 to 1000 nM throughout.
